Assays:
[1] = system: cysteamine induced duodenal ulcers; test: Healing of cysteamine-induced perforating duodenal ulcers, therapy in drinking water for 50 days (Example 1); type: in vivo; conditions: rats, 50 days therapy from day 7 after cysteamine, urogastrone 6 μg./rat/day, cimetidine 100 mg./rat/day; for Healed (number of healed ulcers) / Unhealed (number of unhealed ulcers): n 15
Experimental: Rats with perforating duodenal ulcers confirmed by laparotomy were selected from a large number and given two doses of cysteamine as described in the following protocol. These animals were randomly assigned to treatment groups of 15 rats each. The protocol utilises 2 doses of cysteamine (300 mg./kg. and 150 mg./kg., 6 hours apart). This procedure produces deep perforating duodenal ulcers in a majority of the rats injected. The "chronic" ulcers heal extremely slowly. Previous studies have shown that after 50 days only 20% have healed as judged by reepithelialization of the surface. Even after 200 days, 36% remain unhealed. In order to provide for a reliable experimental protocol, rats given 2 doses of cysteamine are subjected to an intra-abdominal inspection by laparotomy 5 days after induction. Only those rats in which perforation of the ulcer to the duodenal external serosal surface has occurred are included in the experimental groups. Rats with non-perforating ulcers are discarded. Therapy by drug or placebo then begins on day 7 post-induction.On termination after a standardised period of (21 to 50 days) therapy the duodenum is removed from all rats, fixed and stained with PAS and the number of healed and unhealed ulcers determined by macroscopic examination of the mucosal surface with a stereomicroscope. Healing is defined as restoration of complete mucosal integrity by reepithelialisation of the surface. This is confirmed by subsequent histology. In this example, therapy commenced on day 7 following cysteamine and continued for 50 days.

[2] = system: cysteamine induced duodenal ulcers; test: Healing of cysteamine-induced duodenal ulcers, therapy by oral gavage for 21 days, assessed blind by 2 observers (Example 2); type: in vivo; conditions: rats, 10 μg./rat/dose by oral gavage three times a day
Experimental: The protocol utilises 2 doses of cysteamine (300 mg./kg. and 150 mg./kg., 6 hours apart).
In order to provide for a reliable experimental protocol, rats given 2 doses of cysteamine are subjected to an intra-abdominal inspection by laparotomy 5 days after induction. Only those rats in which perforation of the ulcer to the duodenal external serosal surface has occurred are included in the experimental groups. Rats with non-perforating ulcers are discarded. Therapy by drug or placebo then begins on day 7 post-induction.On termination after a standardised period of (21 to 50 days) therapy the duodenum is removed from all rats, fixed and stained with PAS and the number of healed and unhealed ulcers determined by macroscopic examination of the mucosal surface with a stereomicroscope. Healing is defined as restoration of complete mucosal integrity by reepithelialisation of the surface.
In this Example the same protocol was followed as in Example 1 but therapy was continued for only 21 days after commencing on day 7 following ulcer induction.

gastric acid secretion [3] = conditions: administered intravenously to animals; cited from earlier work
[4] = system: gastrointestinal epithelial proliferation; test: Crypt cell production rate of gastrointestinal epithelium in rats on total parenteral nutrition (Example 4); type: in vivo, rat; conditions: intragastric infusion of similar or much larger doses than i.v.
Experimental: These animals have permanent indwelling i.v. catheters connected to infusion pumps via 360° swivel joints which allow normal mobility of the rats within their cages. A complete parenteral food mixture is infused through the catheters at a rate of 60 ml./rat/24 h. The animals are allowed water in the normal way but no food by mouth.
Epithelial cell turnover in these experiments was determined as the crypt cell production rate (CCPR) at each site examined. CCPR was defined as the number of new cells produced per mucosal crypt per hour (for method of determination see Al Nafussi and Wright, Virch. Arch. Cell Pathol. 40: 63, 1982).
Infusion was continued for 10 days.

gastric acid secretion [5] = test: Histamine stimulated acid secretion in beagle dogs with Heidenhain pouches (Example 3); type: in vivo, dog; conditions: Heidenhain pouch dogs; for effect on acid secretion, intravenous administration: intravenously administered
Experimental: Male beagle dogs (14-22 kg.) were prepared with isolated Heidenhain (vagal denervated) pouches derived from the fundic area of the stomach by the method of Rudick et al, J. Surg. Res. 7: 383, 1967. Animals were allowed 4-6 weeks to recover from surgery and given a 2-3 month training period to standardise laboratory behaviour and secretory responses. The dogs were fasted for 23 hours prior to use, the pouch then flushed with warm water and histamine infused subcutaneously at a rate of 10 μg./min. Pouch secretions were collected every 15 minutes, their volume measured and aliquots titrated to pH 7.0 with 100 mM NaOH.

gastrointestinal mucosa = conditions: administered concurrently with or prior to the injurious stimuli; cited from earlier work
[6] = system: acid secretion in the stomach; conditions: administered by a systemic route; cited from earlier work

Compound	Percentage Rate (healed) [1]	Healed (number of healed ulcers) [1]	Unhealed (number of unhealed ulcers) [1]	activity in inhibiting acid secretion, beta- versus gamma-urogastrone (gastric acid secretion [3])	effect on acid secretion, intravenous administration (gastric acid secretion [5])	protection of the gastrointestinal mucosa against damaging stimuli and ulcer formation (gastrointestinal mucosa)	other results
CN/C(=N/CCSCc1nc[nH]c1C)NC#N [Cimetidine, reference compound]	40%	6	9	–	–	–	–
Urogastrone: active form of human urogastrone, polypeptide hormone of 53 amino acids; recombinant derived, produced by microbial methods	43%	6	8	equal activity	inhibited acid secretion	protect the gastrointestinal mucosa	Percentage healed, observer (1) [2]: 36%; Percentage healed, observer (2) [2]: 23%; Healed, observer (1) ([2]; n 22): 8; Unhealed, observer (1) ([2]; n 22): 14; Unhealed, observer (2) ([2]; n 22): 17; effect on gastrointestinal epithelial proliferation, intragastric infusion [4]: no effect; time to peak inhibition of the acid secretion response to histamine (gastric acid secretion [5]; after intravenous bolus injection): ≤ 30 min; dose required to produce a 50% inhibition of acid secretion (gastric acid secretion [5]; intravenous bolus dose, histamine 10 μg./min s.c., from log-linear dose response regression plots): 0.27 µg/kg; effect on acid secretion, oral administration (gastric acid secretion [5]; single oral solution dose, even at 4 mg. (approximately 200 μg./kg.)): no effect on acid secretion; inhibition of acid secretion in the stomach of humans [6]: inhibit acid secretion
gamma-urogastrone: 52 amino acid form that differs from beta-urogastrone only in lacking the carboxy-terminal arginine residue (NSDSECPLSHDGYCLHDGVCMYIEALDKYACNCVVGYIGERCQYRDLKWWEL; Epidermal growth factor; UniProt P01133 971-1022, looked up, fragment)	–	–	–	equal activity	–	–	–
mEGF: epidermal growth factor from mouse salivary glands, polypeptide of 53 amino acids resembling beta-urogastrone (NSYPGCPSSYDGYCLNGGVCMHIESLDSYTCNCVIGYSGDRCQTRDLRWWELR; Epidermal growth factor; UniProt P01132 977-1029, looked up) [reference compound]	–	–	–	–	inhibited acid secretion	protect the gastrointestinal mucosa	–

— patent publication US4820690A (G. D. Searle & Co., priority 1984, dated 1989)
